According to article PMC8571282 (Nature Communications, 2021):
Several values for one entry are separate records, joined by “and”; a condition that tells them apart may be missing. Identical values can stand only once.

Legend:
[1] = Cytotoxicity assay (PrestoBlue), HEp-2; details: human, HEp-2 cells
in vitro = details: human
[2] = Cytotoxicity assay (PrestoBlue), “M2” HAE; details: human, % cell viability, M2 HAE, 72 h
[3] = Cytotoxicity assay (PrestoBlue), “M6” HAE; details: human
“M6” primary HAE cells = test: Cytotoxicity assay (PrestoBlue), “M6” HAE; details: M6 HAE, 72 h
“F3” primary HAE cells = test: Cytotoxicity assay (PrestoBlue), “F3” HAE; details: 72 h; for % cell viability: F3 HAE
[4] = Cytotoxicity assay (PrestoBlue), “F3” HAE; details: human
[5] = parameters: method as in Mackman et al 2021 (JMC 2021, 64(8), 5001-5017); details: rats, ref Mackman et al 2021 (JMC 2021, 64(8), 5001-5017); cited from earlier work
[6] = Cytotoxicity assay (PrestoBlue), HCT-8; details: human, HCT-8 cells
[7] = test system: well-differentiated primary human airway epithelium cultures; type: cell-based
[8] = Cytotoxicity assay (PrestoBlue), “F2” HAE; details: human
[9] = test system: SARS-CoV-2 SA/2020 (β, lineage B.1.351); test: microbe, parasite or virus in culture; type: cell-based; details: Severe acute respiratory syndrome coronavirus 2, Vero C1008; SA/2020, VeroE6, mean n=3

## CC(C)C(=O)OCC1OC(C#N)(c2ccc3c(N)ncnn23)C(OC(=O)C(C)C)C1OC(=O)C(C)C (centres unmarked) [GS-621763]
[1]; % cell viability, HEp-2, 33.333 µM, 72 h
  viability at 72 h, 33.333 µM: 111%
[1]; CC50, HEp-2, 72 h
  CC50 at 72 h: 79.4 µM
In vitro; female, % cell viability
  viability at 72 h, 0.046 µM: 84%
  viability at 72 h, 3.704 µM: 120%
  viability at 72 h, […]: 95%
  viability at […]: 101%
In vitro; female, % cell viability, DF2 HAE, 1.235 µM, 72 h
  viability at 1.235 µM: 103%
In vitro; female, % cell viability, DF2 HAE, 3.704 µM, 72 h
  viability at 3.704 µM: 116%
In vitro; female, % cell viability, DF2 HAE, 33.333 µM, 72 h
  viability at 33.333 µM: 112%
In vitro
  CC50 at 72 h: 86 µM
In vitro; % cell viability
  viability at 72 h, 100 µM: 4%
[2]; 100 µM
  viability at 72 h, 100 µM: 0%
[2]; male, 1.235 µM
  viability at 72 h, 1.235 µM: 107%
[2]; male, 3.704 µM
  viability at 72 h, 3.704 µM: 117%
[2]; male, 33.333 µM
  viability at 72 h, 33.333 µM: 89%
[3]
  CC50 at 72 h: 92.3 µM
[3]; % cell viability, M6 HAE, 100 µM, 72 h
  viability at 72 h, 100 µM: 42%
[3]; male, % cell viability, M6 HAE, 1.235 µM, 72 h
  viability at 72 h, 1.235 µM: 97%
[3]; male, % cell viability, M6 HAE, 33.333 µM, 72 h
  viability at 72 h, 33.333 µM: 94%
“M6” primary HAE cells; 1.235 µM
  % cell viability: 96%
“M6” primary HAE cells; 3.704 µM
  % cell viability: 70% and 86%
“M6” primary HAE cells; 33.333 µM
  % cell viability: 99%
“M6” primary HAE cells; 100 µM
  % cell viability: 46% and 45%
“F3” primary HAE cells; 0.046 µM
  % cell viability: 79%
“F3” primary HAE cells; 3.704 µM
  % cell viability: 115%
“F3” primary HAE cells; 33.333 µM
  % cell viability: 86%
“F3” primary HAE cells; “F3” HAE
  CC50: 43.8 µM
[4]; female, % cell viability, F3 HAE, 1.235 µM
  viability at 72 h, 1.235 µM: 121%
[4]; female, % cell viability, F3 HAE, 3.704 µM
  viability at 72 h, 3.704 µM: 111%
[4]; female, % cell viability, F3 HAE, 33.333 µM
  viability at 72 h, 33.333 µM: 81%
[4]; female, “F3” primary human airway epithelial (HAE) cells, % cell viability, F3 HAE, 0.046 µM
  viability at 72 h, 0.046 µM: 83%
[4]; % cell viability, F3 HAE, 100 µM
  viability at 72 h, 100 µM: 1%
[4]; CC50, “F3” HAE
  CC50 at 72 h: 43.8 µM
[5]
  oral F: 57%
[6]; % cell viability, HCT-8, 0.046 µM, 72 h
  viability at 72 h, 0.046 µM: 78%
[6]; % cell viability, HCT-8, 3.704 µM, 72 h
  viability at 72 h, 3.704 µM: 104%
[6]; % cell viability, HCT-8, 33.333 µM, 72 h
  viability at 72 h, 33.333 µM: 99%
[6]; % cell viability, HCT-8, 100 µM, 72 h
  viability at 72 h, 100 µM: 2%
[6]; CC50, HCT-8, 72 h
  CC50 at 72 h: 74.6 µM
[7]
  basolateral drug concentration at which epithelium integrity (TEER) was fully preserved: ≥ 3 µM
[8]; female, % cell viability, F2 HAE, 1.235 µM
  viability at 72 h, 1.235 µM: 100%
[8]; female, % cell viability, F2 HAE, 3.704 µM
  viability at 72 h, 3.704 µM: 117%
[8]; female, % cell viability, F2 HAE, 33.333 µM
  viability at 72 h, 33.333 µM: 82%
[8]; female, “F2” primary human airway epithelial (HAE) cells, % cell viability, F2 HAE, 0.046 µM
  viability at 72 h, 0.046 µM: 86%
[8]; % cell viability, F2 HAE, 100 µM
  viability at 72 h, 100 µM: 1%
[8]; CC50, “F2” HAE
  CC50 at 72 h: 43.8 µM
[9]
  EC50: 0.11 µM
